Among the data in ChEMBL document CHEMBL6114954, “Design, synthesis and cytotoxic activity of novel lipophilic cationic derivatives of diosgenin and sarsasapogenin” (Bioorg Med Chem Lett, 2025) are Activity and IC50 values, retold here.

The test system of assay [1] is A549. Put plainly: Induction of apoptosis in human A549 cells assessed as decrease in Bcl-2 level by Western blot analysis. Type of assay: functional, cell-based. To be noted: dose <= 4.0 µM. On the technique in general: In western blotting, separated proteins are transferred to a membrane and probed.
Assay [2] deals with A549. In words: Induction of mitochondrial membrane potential depolarization in human A549 cells at 2 uM by JC-1 staining based flow cytometry (reference value: 7.4 %). Type of assay: functional. For orientation: Flow cytometry measures light scatter and fluorescence of single cells or particles in a stream.
Another assay concerns MDA-MB-231. Put plainly: Cytotoxicity against human MDA-MB-231 cells. Type of assay: functional, cell-based.
Assay [3] relates to A549. Put plainly: Induction of cell cycle arrest in human A549 cells assessed as accumulation at G0/G1 phase at 1 to 4 uM incubated for 24 hrs by PI staining based flow cytometry. The conditions noted are these: dose 1-4 µM. Type of assay: functional.
Assay [4] has as its system A549. In words: Cytotoxicity against human A549 cells. Format: functional, cell-based.
Assay [5] concerns A549. In words: Induction of apoptosis in human A549 cells assessed as apoptosis ratio at 4 uM incubated for 24 hrs by Annexin V-FITC/PI staining based flow cytometry (reference value: 4.38 %). Type of assay: functional.
For assay [6], the system named is A549. Put plainly: Induction of apoptosis in human A549 cells assessed as increase in Bax level by Western blot analysis. Type of assay: functional, cell-based. To be noted: dose <= 4.0 µM.
Assay [7] has as its system A549. Put plainly: Induction of apoptosis in human A549 cells assessed as decrease in pro-caspase 3 level upto 4 microM by Western blot analysis. Format: functional, cell-based.
The test system of assay [8] is A549. Put plainly: Induction of apoptosis in human A549 cells assessed as apoptosis ratio at 1 uM incubated for 24 hrs by Annexin V-FITC/PI staining based flow cytometry (reference value: 4.38 %). Format: functional.
Assay [9] relates to A549. Put plainly: Induction of mitochondrial membrane potential depolarization in human A549 cells at 4 uM by JC-1 staining based flow cytometry (reference value: 7.4 %). Format: functional.
The test system of the next assay is HepG2. In words: Cytotoxicity against human HepG2 cells. Format: functional, cell-based.
For assay [10], the system named is A549. Put plainly: Induction of intracellular ROS generation in human A549 cells incubated for 48 hrs by DCFH-DA staining based analysis. Format: functional, cell-based. To be noted: dose 1-4 µM.
In assay [11] the test system is A549. Put plainly: Induction of mitochondrial membrane potential depolarization in human A549 cells at 1 uM by JC-1 staining based flow cytometry (reference value: 7.4 %). Format: functional.
Assay [12] relates to A549. Put plainly: Induction of apoptosis in human A549 cells assessed as apoptosis ratio at 2 uM incubated for 24 hrs by Annexin V-FITC/PI staining based flow cytometry (reference value: 4.38 %). Format: functional.

SMILES strings stand for the structures. Calls of active or inactive are those of the source. The calls are words filed in the database; no cut-off is given here.

Take `CC1CC[C@@]2(OC1)O[C@H]1C[C@H]3[C@@H]4CC=C5C[C@@H](OC(=O)CCC[P+](c6ccccc6)(c6ccccc6)c6ccccc6)CC[C@]5(C)[C@H]4CC[C@]3(C)[C@H]1[C@@H]2C.[Br-]` (some centres undefined): the Activity result in the assay with A549 [1] is “Dose-dependent-effect”; in the assay on A549 [2] it was 40.6%; in the assay with A549 [5] it was 48.2%; with A549 [6] it was “Dose-dependent-effect”; in the assay on A549 [8], 8.51%; in the assay on A549 [9], 91.2%. Further, the values for the Activity entry in the assay with A549 [10], in the assay on A549 [11] and with A549 [12] were “Dose-dependent-effect”, 17.4% and 23.95%, respectively. The IC50 (as a rule, the point on the concentration scale where inhibition reaches its midpoint) is 4.16 µM in the assay on MDA-MB-231, 0.95 µM in the assay on A549 [4] and 3.95 µM in the assay on HepG2. Besides, the result with A549 [3] and with A549 [7] was Active.
